Assay results published in US5807981A (FibroGen Inc., priority 1995, dated 1998).
Residues, ends and D or L forms follow the SMILES beside them.

Biological target: T1, C-proteinase (Homo sapiens, UniProt P13497)
T1 sequence (P13497 121-986): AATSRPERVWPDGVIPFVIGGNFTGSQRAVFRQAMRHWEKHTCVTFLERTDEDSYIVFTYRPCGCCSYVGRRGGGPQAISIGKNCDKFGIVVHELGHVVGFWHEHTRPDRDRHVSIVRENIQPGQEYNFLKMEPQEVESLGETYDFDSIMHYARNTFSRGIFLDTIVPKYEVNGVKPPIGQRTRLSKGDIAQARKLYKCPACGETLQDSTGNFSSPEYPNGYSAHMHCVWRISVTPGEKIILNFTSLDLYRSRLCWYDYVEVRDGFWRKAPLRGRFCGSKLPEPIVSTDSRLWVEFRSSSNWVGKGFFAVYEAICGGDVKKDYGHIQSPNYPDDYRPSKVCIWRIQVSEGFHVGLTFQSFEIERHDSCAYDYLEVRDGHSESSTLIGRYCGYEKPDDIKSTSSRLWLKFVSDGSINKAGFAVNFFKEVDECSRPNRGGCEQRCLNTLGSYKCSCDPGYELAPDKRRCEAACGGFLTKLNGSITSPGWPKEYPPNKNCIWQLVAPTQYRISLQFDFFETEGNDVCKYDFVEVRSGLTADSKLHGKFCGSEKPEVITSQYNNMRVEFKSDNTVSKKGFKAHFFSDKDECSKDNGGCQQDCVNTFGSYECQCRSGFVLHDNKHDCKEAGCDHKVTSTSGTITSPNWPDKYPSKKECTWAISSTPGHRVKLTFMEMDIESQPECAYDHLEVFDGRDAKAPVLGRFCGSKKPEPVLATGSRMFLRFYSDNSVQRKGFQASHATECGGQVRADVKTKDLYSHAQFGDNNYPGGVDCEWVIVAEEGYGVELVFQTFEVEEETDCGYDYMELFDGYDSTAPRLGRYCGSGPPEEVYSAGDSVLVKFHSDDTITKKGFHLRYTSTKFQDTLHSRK
Test: Cleavage of synthetic procollagen cleavage-site peptides by active C-proteinase
Type: biochemical
Settings: for Cleavability: Table 1, cleavability of peptides resembling the C-proteinase cleavage site of procollagen; for cleavability by C-proteinase: truncated and extended peptides compared with original peptide SEQ ID NO:6
From the text: A variety of short peptides comprising five (5) to twelve (12) amino acids was synthesized and tested for cleavage by active C-proteinase.
First, four peptides, each comprising eight (8) amino acids corresponding to the cleavage region of several procollagens were synthesized. See, TABLE 1, SEQ ID NO:3, SEQ ID NO:4, SEQ ID NO:5, and SEQ ID NO:6. All four peptides were examined for cleavability by C-proteinase. […] Indeed, one would expect that recognition of the cleavage site depends on structural requirements which cannot be resembled by only eight (8) amino acids.
Second, a series of peptides was prepared based on the sequence of original peptide SEQ ID NO:6. Specifically, peptides were designed resembling the core of the peptide comprising SEQ ID NO:6, but with truncations of one, two and three amino acids from either side of the cleavage site. A further peptide was synthesized resembling two additional amino acids at both the N-terminus and C-terminus of the original peptide comprising SEQ ID NO:6.
Removing two or more amino acids from either end of the original SEQ ID NO:6 sequence, however, yielded a non-cleavable peptide (SEQ ID NOS:9, 10, 12, 13).

Cleavability	cleavability by C-proteinase	SMILES
none	non-cleavable	CC(=O)N1CCC[C@H]1C(=O)N[C@@H](Cc1ccc(O)cc1)C(=O)N[C@@H](Cc1ccc(O)cc1)C(=O)NCC(=O)N[C@@H](CC(=O)O)C(=O)N[C@@H](CCC(=O)O)C(N)=O [SEQ ID NO:9, Ac-PYYG-DE-NH2] (Ac-PYYGDE-NH2)
slight	cleaved by C-proteinase	CC(=O)N[C@@H](Cc1ccc(O)cc1)C(=O)N[C@@H](Cc1ccc(O)cc1)C(=O)N[C@@H](CCCNC(=N)N)C(=O)N[C@@H](C)C(=O)N[C@@H](CC(=O)O)C(=O)N[C@@H](CC(=O)O)C(=O)N[C@@H](C)C(=O)N[C@@H](CC(N)=O)C(N)=O [SEQ ID NO:3, Ac-YYRA-DDAN-NH2] (Ac-YYRADDAN-NH2)
slight	cleaved by C-proteinase	CSCC[C@H](NC(=O)[C@H](Cc1ccc(O)cc1)NC(C)=O)C(=O)N[C@@H](CCCNC(=N)N)C(=O)N[C@@H](C)C(=O)N[C@@H](CC(=O)O)C(=O)N[C@@H](CCC(N)=O)C(=O)N[C@@H](C)C(=O)N[C@@H](C)C(N)=O [SEQ ID NO:5, Ac-YMRA-DQAA-NH2] (Ac-YMRADQAA-NH2)
excellent	did not impact its cleavability	CSCC[C@H](NC(=O)[C@@H]1CCCN1C(=O)[C@H](CCC(=O)O)NC(=O)[C@H](CC(=O)O)NC(=O)CNC(=O)[C@H](Cc1ccc(O)cc1)NC(=O)[C@H](Cc1ccc(O)cc1)NC(=O)[C@@H]1CCCN1C(=O)[C@H](C)NC(=O)[C@H](Cc1ccccc1)NC(C)=O)C(=O)N[C@@H](CC(=O)O)C(=O)N[C@@H](Cc1ccccc1)C(N)=O [SEQ ID NO:7, Ac-FAPYYG-DEPMDF-NH2] (Ac-FAPYYGDEPMDF-NH2)
